In patent US12187701B2, “Taire family kinase inhibitors and uses thereof” (Dana-Farber Cancer Institute, Inc., priority 2018, dated 2025):
Like-named read-outs stand apart in the source and are kept apart here.

Experiments:
HCT116 cells = test: Antiproliferation assay, Cell Titer Glo, 72 hours; assay type: cell-based
Protocol: HCT116 cells were plated in 384-well plates at 750 cells/well in 50 ul fresh media (McCoy's 5A+10% FBS+1% Penn/Strep) and treated with 0.1 μl candidate compounds in four-fold dilution series using the Janus pinner. Cells were incubated with compounds for 72 hours in 37° C. 5% CO2. Anti-proliferative effects of these compounds were assessed 72 hours after compound addition using Cell Titer Glo (Promega cat #G7571) as described in product manual by luminescence measurements using an Envision platereader. All proliferation assays were performed in biological quadruplicate. IC50 values were determined using a non-linear regression curve fit in GraphPad Prism 6.

Cdk14/CycY = Cdk14/CycY (Homo sapiens (Human), UniProt O94921); test: Lanthascreen Eu kinase binding assay for Cdk14/CycY with 30 minute pre-incubation; settings: 30 minute pre-incubation of kinase with compound; read-out: IC50 CDK14 binding by Lanthascreen
Chain of Cdk14/CycY (O94921 whole entry): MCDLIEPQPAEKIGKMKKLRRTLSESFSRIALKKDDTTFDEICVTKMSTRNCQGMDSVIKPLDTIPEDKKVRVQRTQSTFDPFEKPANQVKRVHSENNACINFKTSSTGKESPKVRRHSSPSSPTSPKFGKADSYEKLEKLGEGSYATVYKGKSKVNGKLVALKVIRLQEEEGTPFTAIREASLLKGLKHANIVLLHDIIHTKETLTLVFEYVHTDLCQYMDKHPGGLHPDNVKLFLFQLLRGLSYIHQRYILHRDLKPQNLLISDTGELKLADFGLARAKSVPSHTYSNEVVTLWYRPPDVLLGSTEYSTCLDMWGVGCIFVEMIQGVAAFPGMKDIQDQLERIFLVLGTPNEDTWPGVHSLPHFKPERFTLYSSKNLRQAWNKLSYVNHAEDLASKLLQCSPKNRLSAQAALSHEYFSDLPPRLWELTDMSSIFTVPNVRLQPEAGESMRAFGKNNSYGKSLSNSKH
Chain of Cdk14/CycY (Q8ND76 whole entry partner): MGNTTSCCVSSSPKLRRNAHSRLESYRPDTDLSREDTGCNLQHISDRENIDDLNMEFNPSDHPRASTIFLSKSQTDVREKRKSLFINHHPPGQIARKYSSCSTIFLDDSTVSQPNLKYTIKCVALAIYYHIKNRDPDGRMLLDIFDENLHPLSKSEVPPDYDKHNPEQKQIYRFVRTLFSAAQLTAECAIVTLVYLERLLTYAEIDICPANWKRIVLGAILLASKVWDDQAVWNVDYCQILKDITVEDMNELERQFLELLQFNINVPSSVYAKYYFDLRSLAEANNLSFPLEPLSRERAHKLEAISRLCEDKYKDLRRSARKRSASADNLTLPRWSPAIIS
Protocol: Lanthascreen Eu kinase binding assays were conducted for Cdk14/CycY largely as performed in the commercial assay service by Life Technologies, but included a 30 minute pre-incubation step of the kinase with candidate compounds to facilitate covalent bond formation.

IC50 (HCT116 cells) [nM]	IC50 (Cdk14/CycY) [nM]	IC50 (HCT116 cells; Homo sapiens, HCT-116, 72 h) [nM]	SMILES
826	1100		C=CC(=O)Nc1cccc(N2CCC(NC(=O)c3n[nH]cc3NC(=O)c3c(Cl)cccc3Cl)C2)c1 (stereo in doubt) [FMF-05-086-1, (S)—N-(1-(3-acrylamidophenyl)pyrrolidin-3-yl)-4-(2,6-dichlorobenzamido)-1H-pyrazole-3-carboxamide]
	401	341	C=CC(=O)N1CCC(NC(=O)c2n[nH]cc2NC(=O)c2c(Cl)cccc2Cl)CC1 [FMF-03-177-1, N-(1-acryloylpiperidin-4-yl)-4-(2,6-dichlorobenzamido)-1H-pyrazole-3-carboxamide]
	208	1060	CN(C)C/C=C/C(=O)N1CCC(NC(=O)c2n[nH]cc2NC(=O)c2c(Cl)cccc2Cl)CC1 [FMF-03-177-2, (E)-4-(2,6-dichlorobenzamido)-N-(1-(4-(dimethylamino)but-2-enoyl)piperidin-4-yl)-1H-pyrazole-3-carboxamide]
	> 1000	17	C=CC(=O)Nc1ccc(NC(=O)c2n[nH]cc2NC(=O)c2c(Cl)cccc2Cl)cc1 [FMF-03-182-1, N-(4-acrylamidophenyl)-4-(2,6-dichlorobenzamido)-1H-pyrazole-3-carboxamide]
	82	395	CN(C)C/C=C/C(=O)Nc1ccc(NC(=O)c2n[nH]cc2NC(=O)c2c(Cl)cccc2Cl)cc1 [FMF-03-182-2, (E)-4-(2,6-dichlorobenzamido)-N-(4-(4-(dimethylamino)but-2-enamido)phenyl)-1H-pyrazole-3-carboxamide]
	569	39	C=CC(=O)N1CCC[C@@H](NC(=O)c2n[nH]cc2NC(=O)c2c(Cl)cccc2Cl)C1 [FMF-03-183-1, (R)—N-(1-acryloylpiperidin-3-yl)-4-(2,6-dichlorobenzamido)-1H-pyrazole-3-carboxamide]
	148	157	CN(C)C/C=C/C(=O)N1CCC[C@@H](NC(=O)c2n[nH]cc2NC(=O)c2c(Cl)cccc2Cl)C1 [FMF-03-183-2, (R,E)-4-(2,6-dichlorobenzamido)-N-(1-(4-(dimethylamino)but-2-enoyl)piperidin-3-yl)-1H-pyrazole-3-carboxamide]
	479	737	C=CC(=O)N1CCC[C@H](NC(=O)c2n[nH]cc2NC(=O)c2c(Cl)cccc2Cl)C1 [FMF-03-184-1, (S)—N-(1-acryloylpiperidin-3-yl)-4-(2,6-dichlorobenzamido)-1H-pyrazole-3-carboxamide]
	976	1340	CN(C)C/C=C/C(=O)N1CCC[C@H](NC(=O)c2n[nH]cc2NC(=O)c2c(Cl)cccc2Cl)C1 [FMF-03-184-2, (S,E)-4-(2,6-dichlorobenzamido)-N-(1-(4-(dimethylamino)but-2-enoyl)piperidin-3-yl)-1H-pyrazole-3-carboxamide]
	126	42	C=CC(=O)Nc1ccc(C(=O)N2CCC(NC(=O)c3n[nH]cc3NC(=O)c3c(Cl)cccc3Cl)CC2)cc1 [FMF-03-186-1, N-(1-(4-acrylamidobenzoyl)piperidin-4-yl)-4-(2,6-dichlorobenzamido)-1H-pyrazole-3-carboxamide]
		0.9	C=CC(=O)Nc1cccc(CN2CCC(NC(=O)c3n[nH]cc3NC(=O)c3c(Cl)cccc3Cl)CC2)c1 [FMF-03-200-1, N-(1-(3-acrylamidobenzyl)piperidin-4-yl)-4-(2,6-dichlorobenzamido)-1H-pyrazole-3-carboxamide]
		> 10000	CN(C)C/C=C/C(=O)Nc1ccc(S(=O)(=O)N2CCC[C@@H](NC(=O)c3n[nH]cc3NC(=O)c3c(Cl)cccc3Cl)C2)cc1 [FMF-04-056-2, (R,E)-4-(2,6-dichlorobenzamido)-N-(1-((4-(4-(dimethylamino)but-2-enamido)phenyl)sulfonyl)piperidin-3-yl)-1H-pyrazole-3-carboxamide]
	> 1000		C=CC(=O)Nc1cccc(C(=O)Nc2ccc(NC(=O)c3n[nH]cc3NC(=O)c3c(Cl)cccc3Cl)c(C)c2)c1 [FMF-04-085-1, N-(4-(3-acrylamidobenzamido)-2-methylphenyl)-4-(2,6-dichlorobenzamido)-1H-pyrazole-3-carboxamide]
		115	C=CC(=O)Nc1cccc(S(=O)(=O)N2CCC(NC(=O)c3n[nH]cc3NC(=O)c3c(Cl)cccc3OC)CC2)c1 [FMF-04-107-1, N-(1-((3-acrylamidophenyl)sulfonyl)piperidin-4-yl)-4-(2-chloro-6-methoxybenzamido)-1H-pyrazole-3-carboxamide]
	8		CN(C/C=C/C(=O)Nc1cccc(S(=O)(=O)N2CCC(NC(=O)c3n[nH]cc3NC(=O)c3c(Cl)cccc3Cl)CC2)c1)CCC(=O)NCCOCCOCCOCCNC(=O)CCCC[C@@H]1SC[C@@H]2NC(=O)N[C@@H]21 [FMF-04-153-1, 4-(2,6-dichlorobenzamido)-N-(1-((3-((E)-5-methyl-8,22-dioxo-26-((3aS,4S,6aR)-2-oxohexahydro-1H-thieno[3,4-d]imidazol-4-yl)-12,15,18-trioxa-5,9,21-triazahexacos-2-enamido)phenyl)sulfonyl)piperidin-4-yl)-1H-pyrazole-3-carboxamide]
		156	CN(C)C/C=C/C(=O)Nc1cccc(CN2CCC(NC(=O)c3n[nH]cc3NC(=O)c3c(Cl)cc(Cl)cc3Cl)CC2)c1 [FMF-04-158-2, (E)-N-(1-(3-(4-(dimethylamino)but-2-enamido)benzyl)piperidin-4-yl)-4-(2,4,6-trichlorobenzamido)-1H-pyrazole-3-carboxamide]
		9000	C=CC(=O)Nc1cccc(S(=O)(=O)N2CCC(NC(=O)c3nn(C)cc3NC(=O)c3c(Cl)cccc3Cl)CC2)c1 [FMF-04-180-1, N-(1-((3-acrylamidophenyl)sulfonyl)piperidin-4-yl)-4-(2,6-dichlorobenzamido)-1-methyl-1H-pyrazole-3-carboxamide]
		> 10000	CN(C)C/C=C/C(=O)Nc1cccc(S(=O)(=O)N2CCC(NC(=O)c3nn(C)cc3NC(=O)c3c(Cl)cccc3Cl)CC2)c1 [FMF-04-180-2, (E)-4-(2,6-dichlorobenzamido)-N-(1-((3-(4-(dimethylamino)but-2-enamido)phenyl)sulfonyl)piperidin-4-yl)-1-methyl-1H-pyrazole-3-carboxamide]
	46		COc1cccc(Cl)c1C(=O)Nc1c[nH]nc1C(=O)NC1CCN(S(=O)(=O)c2cccc(NC(=O)/C=C/CN(C)CCC(=O)NCCOCCOCCOCCNC(=O)CCCCC[C@H]3NC(=O)N[C@H]3C)c2)CC1 [FMF-05-035-1, 4-(2-chloro-6-methoxybenzamido)-N-(1-((3-((E)-5-methyl-27-((4R,5S)—5-methyl-2-oxoimidazolidin-4-yl)-8,22-dioxo-12,15,18-trioxa-5,9,21-triazaheptacos-2-enamido)phenyl)sulfonyl)piperidin-4-yl)-1H-pyrazole-3-carboxamide]
		> 10000	CN(C)C/C=C/C(=O)Nc1cccc(CNC(=O)c2n[nH]cc2NC(=O)c2c(Cl)cccc2Cl)c1 [FMF-05-067-2, (E)-4-(2,6-dichlorobenzamido)-N-(3-(4-(dimethylamino)but-2-enamido)benzyl)-1H-pyrazole-3-carboxamide]
		93	C=CC(=O)Nc1cccc(N2CCC(NC(=O)c3n[nH]cc3NC(=O)c3c(Cl)cccc3Cl)CC2)c1 [FMF-05-085-1, N-(1-(3-acrylamidophenyl)piperidin-4-yl)-4-(2,6-dichlorobenzamido)-1H-pyrazole-3-carboxamide]

SMILES	IC50 (HCT116 cells) [nM]	IC50 (Cdk14/CycY) [nM]	IC50 (HCT116 cells; Homo sapiens, HCT-116, 72 h) [nM]
CN(/C=C/C(=O)Nc1cccc(CN2CCC(NC(=O)c3n[nH]cc3NC(=O)c3c(Cl)cccc3Cl)CC2)c1)CCCCC1C[C@@H]2NC(=O)N[C@@H]2S1 (some centres unmarked) [FMF-04-131-1]		49	
